In ChEMBL document CHEMBL4184108, “Bistachybotrysins A-C, three phenylspirodrimane dimers with cytotoxicity from Stachybotrys chartarum” (Bioorg Med Chem Lett, 2018):

Tests used:
Format in all cases: functional, cell-based
NCI-H460 = assay: Cytotoxicity against human NCI-H460 cells after 96 hrs by MTT assay; details: NCI-H460, 96 h
HepG2 = assay: Cytotoxicity against human HepG2 cells after 96 hrs by MTT assay; details: HepG2, 96 h
HCT-116 = assay: Cytotoxicity against human HCT116 cells after 96 hrs by MTT assay; details: HCT-116, 96 h
Daoy = assay: Cytotoxicity against human DaOY cells after 96 hrs by MTT assay
BGC-823 = assay: Cytotoxicity against human BGC823 cells after 96 hrs by MTT assay; details: BGC-823, 96 h

SMILES	IC50 (NCI-H460)	IC50 (HepG2)	IC50 (HCT-116)	IC50 (Daoy)	IC50 (BGC-823)
CC(=O)O[C@@H]1[C@H](O)C[C@@]2(C)[C@@H](CC[C@@H](C)[C@]23Cc2c(O)cc4c(c2O3)C[C@H]2OCc3cc(O)c5c(c3[C@H](O2)[C@H]4O)O[C@]2(C5)[C@H](C)CC[C@H]3C(C)(C)[C@H](O)CC[C@@]32C)C1(C)C	5.5 µM	19.3 µM	18 µM	4.2 µM	6.6 µM
C[C@@H]1CC[C@H]2C(C)(C)[C@H](O)CC[C@]2(C)[C@@]12Cc1c(O)cc3c(c1O2)[C@@H]1O[C@@H](Cc2c(cc(O)c4c2O[C@]2(C4)[C@H](C)CC[C@H]4C(C)(C)[C@H](O)[C@H](O)C[C@@]42C)[C@@H]1O)OC3	7.5 µM	11.9 µM	6.7 µM	2.8 µM	14.2 µM
CC(=O)O[C@H]1C(=O)[C@@]2(C)[C@H]([C@H](OC(=O)c3ccccc3)[C@]3(O)C[C@H](OC(=O)[C@H](O)[C@@H](NC(=O)c4ccccc4)c4ccccc4)C(C)=C1C3(C)C)[C@]1(OC(C)=O)CO[C@@H]1C[C@@H]2O [PACLITAXEL]	0.004 µM	0.0102 µM	0.038 µM	0.002 µM	0.002 µM
C[C@@H]1CC[C@H]2C(C)(C)[C@H](O)[C@H](O)C[C@]2(C)[C@@]12Cc1c(O)cc3c(c1O2)C[C@H]1OCc2cc(O)c4c(c2[C@H](O1)[C@H]3O)O[C@]1(C4)[C@H](C)CC[C@H]2C(C)(C)[C@H](O)[C@H](O)C[C@@]21C	12.3 µM	19.3 µM	19.1 µM	14.6 µM	19.2 µM
